Experimental data published in patent US11718618B2, “Substituted pyrido[2,1-a]isoquinolines as VMAT2 inhibitors” (priority 2021, dated 2023).

Columns and labels:
human VMAT2 = human VMAT2 (Homo sapiens (Human), UniProt Q05940); experiment: VMAT2 radioligand binding, 3H-dihydrotetrabenazine competition on human platelet homogenate; details: 10 nM 3H-dihydrotetrabenazine, human platelet homogenate, 25° C., 90 minutes; read-out: VMAT2 Ki
In short: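 Ki from scintillation counting of filter-bound ³H-dihydrotetrabenazine (10 nM) after 90 min, 25 °C incubation with twelve concentrations of compound. Membranes: human platelet homogenate, 30 μg protein per well; buffer DPBS, 1 mM EDTA, pH 7.4.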

[1] = Stability of compounds in human liver microsomes; assay type: in vitro ADME; details: for CLint scaled at 0.5 μM / half-life at 0.5 μM: both sexes, pH 7.4; for CLint scaled at 0.5 μM: liver microsomes, calculated from HLM half-life, read-out: HLM Scaled Intrinsic Clearance; for CLint scaled at 0.5 μM / Predicted Max. Bioavailability (% F) / HLM Predicted Systemic Clearance: human; for half-life at 0.5 μM: 0.5 μM compound, 0.5 mg/mL human liver microsomes, 37° C., maxed at 420 minutes, read-out: HLM Elimination half-life (t1/2, min); for Predicted Max. Bioavailability (% F): predicted from HLM data; for HLM Predicted Systemic Clearance: scaled from HLM half-life (Obach method)
In short: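 Compound at 0.5 μM incubated at 37 °C with pooled mixed-gender human liver microsomes (0.5 mg/mL protein) and an NADPH-generating system in pH 7.4 phosphate buffer, sampled 0–60 min. Parent depletion tracked by LC-MS/MS; t1/2 derived from the slope by non-linear regression, with predicted extraction ratio and maximum bioavailability also calculated.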

human VMAT2, sequence (Q05940 whole entry): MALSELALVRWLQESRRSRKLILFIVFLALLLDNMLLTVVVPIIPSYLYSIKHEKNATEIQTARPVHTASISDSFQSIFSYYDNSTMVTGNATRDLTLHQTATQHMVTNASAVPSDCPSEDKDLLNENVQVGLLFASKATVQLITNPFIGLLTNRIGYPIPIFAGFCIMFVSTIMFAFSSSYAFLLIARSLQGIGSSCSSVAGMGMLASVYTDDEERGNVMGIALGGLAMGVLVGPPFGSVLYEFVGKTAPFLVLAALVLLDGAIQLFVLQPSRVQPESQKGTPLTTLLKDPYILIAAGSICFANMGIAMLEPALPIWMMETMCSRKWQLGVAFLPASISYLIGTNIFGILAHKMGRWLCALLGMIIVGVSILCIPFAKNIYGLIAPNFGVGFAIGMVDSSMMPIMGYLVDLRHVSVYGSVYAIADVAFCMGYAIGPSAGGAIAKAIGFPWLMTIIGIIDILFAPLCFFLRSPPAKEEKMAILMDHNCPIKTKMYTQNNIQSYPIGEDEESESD

Work on `COc1cc2c(cc1OCC1CCN(C#N)CC1)CCN1C[C@@H](CC(C)(C)C)[C@H](O)C[C@H]21` [Compound 4-73] yielded a Ki (human VMAT2) of 51 nM, a CLint scaled at 0.5 μM [1] of 10.5 mL/min/kg and a half-life at 0.5 μM [1] of 119 min. The “Predicted Max. Bioavailability (% F)” value [1] was 66 % F and the “HLM Predicted Systemic Clearance” value [1] was 6.88 mL/min/kg.
`COc1cc2c(cc1OCCc1ccc(C(F)(F)F)cc1)CCN1C[C@@H](CC(C)(C)C)[C@H](O)C[C@H]21` [Compound 4-74, (2R,3R,11bR)-3-(2,2-dimethylpropyl)-10-methoxy-9-{2-[4-(trifluoromethyl)phenyl]ethoxy}-1H,2H,3H,4H,6H,7H,11bH-pyrido[2,1-a]isoquinolin-2-ol] showed a Ki (human VMAT2) of 65 nM, a CLint scaled at 0.5 μM [1] of 34.6 mL/min/kg and a half-life at 0.5 μM [1] of 36 min. The “Predicted Max. Bioavailability (% F)” value [1] was 37 % F and the “HLM Predicted Systemic Clearance” value [1] was 12.68 mL/min/kg.
`COc1cc2c(cc1OCc1cocn1)CCN1C[C@@H](CC(C)(C)C)[C@H](O)C[C@H]21` [Compound 4-75, (2R,3R,11bR)-3-(2,2-dimethylpropyl)-10-methoxy-9-(1,3-oxazol-4-ylmethoxy)-1H,2H,3H,4H,6H,7H,11bH-pyrido[2,1-a]isoquinolin-2-ol] gave a Ki (human VMAT2) of 76 nM, a CLint scaled at 0.5 μM [1] of 11.9 mL/min/kg and a half-life at 0.5 μM [1] of 104 min. The “Predicted Max. Bioavailability (% F)” value [1] was 63 % F and the “HLM Predicted Systemic Clearance” value [1] was 7.48 mL/min/kg.
With `COc1cc2c(cc1OCC1(O)CCC(F)(F)CC1)CCN1C[C@@H](CC(C)(C)C)[C@H](O)C[C@H]21` [Compound 4-76, (2R,3R,11bR)-9-[(4,4-difluoro-1-hydroxycyclohexyl)methoxy]-3-(2,2-dimethylpropyl)-10-methoxy-1H,2H,3H,4H,6H,7H,11bH-pyrido[2,1-a]isoquinolin-2-ol] the Ki (human VMAT2) was 82 nM, the CLint scaled at 0.5 μM [1] was at most 2.97 mL/min/kg and the half-life at 0.5 μM [1] was at least 420 min. For the same compound, the “Predicted Max. Bioavailability (% F)” value [1] was at least 87 % F and the “HLM Predicted Systemic Clearance” value [1] was at most 2.59 mL/min/kg.
`COc1cc2c(cc1OCc1cccc(C#N)n1)CCN1C[C@@H](CC(C)(C)C)[C@H](O)C[C@H]21` [Compound 4-77, 6-({[(2R,3R,11bR)-3-(2,2-dimethylpropyl)-2-hydroxy-10-methoxy-1H,2H,3H,4H,6H,7H,11bH-pyrido[2,1-a]isoquinolin-9-yl]oxy}methyl)pyridine-2-carbonitrile] showed a Ki (human VMAT2) of 85 nM, a CLint scaled at 0.5 μM [1] of 8.01 mL/min/kg and a half-life at 0.5 μM [1] of 156 min. The “Predicted Max. Bioavailability (% F)” value [1] was 71 % F and the “HLM Predicted Systemic Clearance” value [1] was 5.72 mL/min/kg.
For `COc1cc2c(cc1OCC1CC(O)(C(F)(F)F)C1)CCN1C[C@@H](CC(C)(C)C)[C@H](O)C[C@H]21` (stereo partly drawn) [Compound 4-78, (2R,3R,11bR)-3-(2,2-dimethylpropyl)-9-{[3-hydroxy-3-(trifluoro-methyl)cyclobutyl]methoxy}-10-methoxy-1H,2H,3H,4H,6H,7H,11bH-pyrido[2,1-a]isoquinolin-2-ol], the Ki (human VMAT2) was 92 nM, the CLint scaled at 0.5 μM [1] was 6.41 mL/min/kg and the half-life at 0.5 μM [1] was 195 min. The “Predicted Max. Bioavailability (% F)” value [1] was 76 % F and the “HLM Predicted Systemic Clearance” value [1] was 4.86 mL/min/kg.
In the case of `COc1cc2c(cc1OCC(O)COCC(F)(F)F)CCN1C[C@@H](CC(C)(C)C)[C@H](O)C[C@H]21` (stereo partly drawn) [Compound 4-79], the Ki (human VMAT2) is reported as 99 nM, the CLint scaled at 0.5 μM [1] is reported as 5.88 mL/min/kg and the half-life at 0.5 μM [1] is reported as 212 min. For the same compound, the “Predicted Max. Bioavailability (% F)” value [1] was 77 % F and the “HLM Predicted Systemic Clearance” value [1] was 4.54 mL/min/kg.
For `COc1cc2c(cc1OCC1CC1)CCN1C[C@@H](CC(C)(C)C)[C@H](O)C[C@H]21` [Compound 4-88, (2R,3R,11bR)-9-(cyclopropylmethoxy)-3-(2,2-dimethylpropyl)-10-methoxy-1H,2H,3H,4H,6H,7H,11bH-pyrido[2,1-a]isoquinolin-2-ol], the Ki (human VMAT2) was 0.68 nM, the CLint scaled at 0.5 μM [1] was 28.1 mL/min/kg and the half-life at 0.5 μM [1] was 44 min. The “Predicted Max. Bioavailability (% F)” value [1] was 42 % F and the “HLM Predicted Systemic Clearance” value [1] was 11.68 mL/min/kg.
In the case of `CC[C@@H]1C[C@H]1COc1cc2c(cc1OC)[C@H]1C[C@@H](O)[C@H](CC(C)(C)C)CN1CC2` [Compound 4-90, (2R,3R,11bR)-3-(2,2-dimethylpropyl)-9-{[(1R,2R)-2-ethylcyclopropyl]methoxy}-10-methoxy-1H,2H,3H,4H,6H,7H,11bH-pyrido[2,1-a]isoquinolin-2-ol], the Ki (human VMAT2) is reported as 0.29 nM, the CLint scaled at 0.5 μM [1] is reported as 156 mL/min/kg and the half-life at 0.5 μM [1] is reported as 8 min. For the same compound, the “Predicted Max. Bioavailability (% F)” value [1] was 11 % F and the “HLM Predicted Systemic Clearance” value [1] was 17.72 mL/min/kg.
`COc1cc2c(cc1OC[C@@H](C)OC)CCN1C[C@@H](CC(C)(C)C)[C@H](O)C[C@H]21` [Compound 4-91, (2R,3R,11bR)-3-(2,2-dimethylpropyl)-10-methoxy-9-[(2R)-2-methoxypropoxy]-1H,2H,3H,4H,6H,7H,11bH-pyrido[2,1-a]isoquinolin-2-ol] showed a Ki (human VMAT2) of 28 nM, a CLint scaled at 0.5 μM [1] of 19.7 mL/min/kg and a half-life at 0.5 μM [1] of 63 min. The “Predicted Max. Bioavailability (% F)” value [1] was 50 % F and the “HLM Predicted Systemic Clearance” value [1] was 9.92 mL/min/kg.
Compound `COc1cc2c(cc1OC[C@H](C)OC)CCN1C[C@@H](CC(C)(C)C)[C@H](O)C[C@H]21` [Compound 4-92, (2R,3R,11bR)-3-(2,2-dimethylpropyl)-10-methoxy-9-[(2S)-2-methoxypropoxy]-1H,2H,3H,4H,6H,7H,11bH-pyrido[2,1-a]isoquinolin-2-ol] has a Ki (human VMAT2) of 51 nM, a CLint scaled at 0.5 μM [1] of 25.5 mL/min/kg and a half-life at 0.5 μM [1] of 49 min. For the same compound, the “Predicted Max. Bioavailability (% F)” value [1] was 44 % F and the “HLM Predicted Systemic Clearance” value [1] was 11.2 mL/min/kg.
In the case of `COc1cc2c(cc1OC[C@H](C)O)CCN1C[C@@H](CC(C)(C)C)[C@H](O)C[C@H]21` [Compound 4-114, (2R,3R,11bR)-3-(2,2-dimethylpropyl)-9-[(2S)-2-hydroxypropoxy]-10-methoxy-1H,2H,3H,4H,6H,7H,11bH-pyrido[2,1-a]isoquinolin-2-ol], the Ki (human VMAT2) is reported as 70 nM, the CLint scaled at 0.5 μM [1] is reported as at most 2.97 mL/min/kg and the half-life at 0.5 μM [1] is reported as at least 420 min. The “Predicted Max. Bioavailability (% F)” value [1] was at least 87 % F and the “HLM Predicted Systemic Clearance” value [1] was at most 2.59 mL/min/kg.
For `COc1cc2c(cc1OCCCCC(F)(F)F)CCN1C[C@@H](CC(C)(C)C)[C@H](O)C[C@H]21` [Compound 4-115, (2R,3R,11bR)-3-(2,2-dimethylpropyl)-10-methoxy-9-[(5,5,5-trifluoropentyl)oxy]-1H,2H,3H,4H,6H,7H,11bH-pyrido[2,1-a]isoquinolin-2-ol], the Ki (human VMAT2) was 6.1 nM, the CLint scaled at 0.5 μM [1] was 9.38 mL/min/kg and the half-life at 0.5 μM [1] was 133 min. The “Predicted Max. Bioavailability (% F)” value [1] was 68 % F and the “HLM Predicted Systemic Clearance” value [1] was 6.39 mL/min/kg.
For `COc1cc2c(cc1OCc1cccc(C#N)c1)CCN1C[C@@H](CC(C)(C)C)[C@H](O)C[C@H]21` [Compound 4-116, 3-({[(2R,3R,11bR)-3-(2,2-dimethylpropyl)-2-hydroxy-10-methoxy-1H,2H,3H,4H,6H,7H,11bH-pyrido[2,1-a]isoquinolin-9-yl]oxy}methyl)benzonitrile], the Ki (human VMAT2) was 56 nM, the CLint scaled at 0.5 μM [1] was 21.8 mL/min/kg and the half-life at 0.5 μM [1] was 57 min. For the same compound, the “Predicted Max. Bioavailability (% F)” value [1] was 48 % F and the “HLM Predicted Systemic Clearance” value [1] was 10.44 mL/min/kg.
With `COc1cc2c(cc1OCCc1ccc(F)cc1)CCN1C[C@@H](CC(C)(C)C)[C@H](O)C[C@H]21` [Compound 4-117, (2R,3R,11bR)-3-(2,2-dimethylpropyl)-9-[2-(4-fluorophenyl)ethoxy]-10-methoxy-1H,2H,3H,4H,6H,7H,11bH-pyrido[2,1-a]isoquinolin-2-ol] the Ki (human VMAT2) was 2.2 nM, the CLint scaled at 0.5 μM [1] was 112 mL/min/kg and the half-life at 0.5 μM [1] was 11 min. The “Predicted Max. Bioavailability (% F)” value [1] was 15 % F and the “HLM Predicted Systemic Clearance” value [1] was 16.98 mL/min/kg.
